This is an account of results in patent publication US20050208084A1, “Use of alkylamidomandelates as flavourings” (priority 2002, published 2005).

The conditions of series [1]: cited from earlier work.
Series [2] in a line: Tasting the mandelic acid alkylamides (sensory panel, ethanolic solution diluted in 11% sugar solution, swallowed). Format: in vivo. Particulars: for estimation of pungency: scale of 1 (very weak) to 9 (very strong), 6-8 testers. The method, then:
The substance to be tasted is dissolved in ethanol and the ethanolic solution is then diluted with an 11% sugar solution (final concentration: c). For tasting, in each case approximately 5 ml of the sugar solution are swallowed. If the threshold value of the substance is known, a value just above the threshold value is chosen for the tasting. A group of 6-8 testers tasted the solutions.
Where possible, the impression of pungency was estimated on a scale of 1 (very weak) to 9 (very strong).

As for `COc1cc(CNC(=O)CCCC/C=C/C(C)C)ccc1O` [Capsaicin, N-(4-hydroxy-3-methoxybenzyl)-8-methyl-(6E)-nonenoamide], the “damage occurring in the case of frequent use and overdose” value in series [1] (frequent use and overdose) was “chronic gastritis, kidney and liver damage”. In series [1] (mouse oral), the LD50 is 47 mg. `COc1cc(CNC(=O)CCCCCCC(C)C)ccc1O` [Dihydrocapsaicin, reference compound]: the taste profile result in series [2] (100 ppb in 11% sugar solution) was “slightly delayed onset of effect in pharyngeal cavity, burning, aggressive, no development of heat”. Consider `CCCCCCCCC(=O)NCc1ccc(O)c(OC)c1` [N-(3-methoxy-4-hydroxybenzyl)nonanoamide, reference compound], for which the taste profile entry in series [2] (200 ppb in 11% sugar solution) was “slightly delayed onset of effect in pharyngeal cavity, little pungency on the tongue, stinging, no development of heat”.

Consider `CCCCCCCCNC(=O)C(O)c1ccc(O)c(O)c1` (centres unmarked) [no. 4, 2-(3,4-Dihydroxyphenyl)-2-hydroxy-N-octylacetamide], for which, in series [2] (10 ppm in 11% sugar solution), the taste profile result is reported as “pungency develops slowly; stinging, rough, slightly spicy” and the estimation of pungency is 5.

As for `CCCCCCCCNC(=O)C(O)c1ccc(OC)c(O)c1` (centres unmarked) [no. 6, 2-(3-Hydroxy-4-methoxyphenyl)-2-hydroxy-N-octylacetamide], in series [2] (1 ppm in 11% sugar solution), the taste profile result is “slightly pungent, particularly on the tongue, slight tingling, rapidly disappears again” and the estimation of pungency is 3. `CCCCCCCNC(=O)C(O)c1ccc(O)c(OC)c1` (centres unmarked) [no. 8, 2-(4-Hydroxy-3-methoxyphenyl)-2-hydroxy-N-heptylacetamide]: in series [2] (10 ppm in 11% sugar solution), the taste profile result was “pungency develops; burning, slightly over-ripe” and the estimation of pungency is 7. With `CCCCCCCCNC(=O)C(O)c1ccc(O)c(OC)c1` (centres unmarked) [no. 9, 2-(4-Hydroxy-3-methoxyphenyl)-2-hydroxy-N-octylacetamide], in series [2] (1 ppm in 11% sugar solution), the taste profile entry was “no pungency initially, develops suddenly, very intense and long-lasting, ginger pungency”; the estimation of pungency is 8. On to `CCCCCCCCCNC(=O)C(O)c1ccc(O)c(OC)c1` (centres unmarked) [no. 10, 2-(4-Hydroxy-3-methoxyphenyl)-2-hydroxy-N-nonylacetamide], for which, in series [2] (10 ppm in 11% sugar solution), the taste profile entry was “immediate onset of pungency; similar to capsaicin” and the estimation of pungency is 8.
